Values after ≈ are worked out from the molar mass of the structure shown.
tested on: U-46619-induced platelet aggregation; experiment: U-46619-induced platelet aggregation-inhibiting activity (in vitro); type: cell-based; settings: human platelet-rich plasma, 4×10^5 cells/mm^3, U-46619 solution (0.2 μg/ml), 37° C., Born's method
Procedure: The bottom layer was further centrifuged to give platelet-poor plasma ("PPP") as the supernatant. PRP was diluted with PPP so that the platelet count was 4×10^5 cells/mm^3. 25 μl of a test compound solution was added to 200 μl of said diluted PRP.

IC50 [µg/mL] | SMILES
0.2 (≈ 0.465 µM) | Cc1ccc(S(=O)(=O)NC2CCc3cc(CC(=O)NCCC(=O)O)ccc3C2)cc1 (stereo not drawn) [Compound No. 1]
0.7 (≈ 1.51 µM) | O=C(O)CCCNC(=O)Cc1ccc2c(c1)CCC(NS(=O)(=O)c1ccc(Cl)cc1)C2 (stereo not drawn) [Compound No. 3]

SMILES | IC50 [µg/mL]
O=C([O-])Cc1ccc2c(c1)CCC(NS(=O)(=O)c1ccc(Cl)cc1)C2.[Na+] (stereo not drawn) [Compound No. 2, Sodium 6(4-chlorophenyl)sulfonylamino-5,6,7,8-tetrahydronaphthalene-2-acetate] | 0.06

— patent US5206428A, “Tetrahydronaphthalene derivatives and preparation thereof” (Tanabe Seiyaku Co., Ltd., priority 1989, dated 1993)
